Columns and labels:
[1] = target: human A2a adenosine receptor (Homo sapiens (Human), UniProt P29274); assay: A2a receptor affinity radioligand binding assay ([3H] SCH58261); details: for IC50: membranes from HEK293 or CHO cells expressing human A2a receptor
How it was run: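 Membranes from HEK293 or CHO cells expressing human A2a were preincubated 15–30 min at room temperature with compound, then incubated 60 min at room temperature with [3H]SCH58261 (diluted to 4 nM) in 50 mM Tris pH 7.4, 10 mM MgCl2, 0.005% Tween20. Bound radioactivity was collected by filtration; nonspecific binding defined with 1 μM ZM241385; IC50 from 4-parameter logistic fit.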

[2] = target: human A2b adenosine receptor (Homo sapiens (Human), UniProt P29275); assay: A2b radioligand filtration binding assay; details: membranes from HEK293 cells expressing human A2b receptor
How it was run: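 Membranes from HEK293 cells expressing human A2b receptor preincubated with compound 15 to 30 min at room temperature, then tritiated proprietary A2b antagonist (diluted to 14 nM before addition) added in PBS pH 7.4 for 60 min at room temperature. Bound radioactivity by filtration and scintillation; non-specific binding with 20 μM NECA; IC50 by 4-parameter logistic fit.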

Sequence of human A2b adenosine receptor (P29275 whole entry): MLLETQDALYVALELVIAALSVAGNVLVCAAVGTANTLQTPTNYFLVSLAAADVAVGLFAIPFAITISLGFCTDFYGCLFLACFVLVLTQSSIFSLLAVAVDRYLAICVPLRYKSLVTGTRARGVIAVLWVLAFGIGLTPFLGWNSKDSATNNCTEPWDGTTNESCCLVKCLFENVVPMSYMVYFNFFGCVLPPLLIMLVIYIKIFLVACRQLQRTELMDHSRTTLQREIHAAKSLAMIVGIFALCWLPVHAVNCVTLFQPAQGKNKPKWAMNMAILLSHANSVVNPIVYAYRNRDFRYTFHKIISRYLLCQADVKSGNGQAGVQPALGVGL
Sequence of human A2a adenosine receptor (P29274 whole entry): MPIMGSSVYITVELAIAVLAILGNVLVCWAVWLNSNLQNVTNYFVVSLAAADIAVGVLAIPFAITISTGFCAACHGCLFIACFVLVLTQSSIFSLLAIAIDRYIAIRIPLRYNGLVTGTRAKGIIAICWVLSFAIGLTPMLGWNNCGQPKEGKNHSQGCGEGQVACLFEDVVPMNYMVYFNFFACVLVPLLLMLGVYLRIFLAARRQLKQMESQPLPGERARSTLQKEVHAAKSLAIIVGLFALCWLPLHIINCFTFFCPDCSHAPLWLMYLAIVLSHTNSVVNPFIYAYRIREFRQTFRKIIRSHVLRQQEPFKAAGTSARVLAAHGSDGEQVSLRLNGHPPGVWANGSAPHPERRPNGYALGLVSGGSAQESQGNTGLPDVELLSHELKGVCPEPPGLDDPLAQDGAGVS

IC50 [1] [nM]	IC50 [2] [nM]	A2A binding % Inh. @ 1000 nM [1] [% Inh. @]	Compound
1.9	387	–	COc1cc(F)cc2c1nc(N)n1nc(C3CCC(C)N(c4cnn(CC(C)(C)O)c4)C3)nc21 (single isomer, unassigned) [Example 118, 1-(4-((2R or 2S,5R or 5S)-5-(5-amino-9-fluoro-7-methoxy-[1,2,4]triazolo[1,5-c]quinazolin-2-yl)-2-methylpiperidin-1-yl)-1H-pyrazol-1-yl)-2-methylpropan-2-ol]
51.6	1300	–	COc1cc(F)cc2c1nc(N)n1nc(C3CCC(C)N(c4cnn(CC(C)(C)O)c4)C3)nc21 (single isomer, unassigned) [Example 119, 1-(4-((2S or 2R,5S or 5R)-5-(5-amino-9-fluoro-7-methoxy-[1,2,4]triazolo[1,5-c]quinazolin-2-yl)-2-methylpiperidin-1-yl)-1H-pyrazol-1-yl)-2-methylpropan-2-ol]
0.6	7.8	–	COc1cc(F)cc2c1nc(N)n1nc(C3CCC(C)N(c4cnn(CC(C)(C)O)c4)C3)nc21 (single isomer, unassigned) [Example 120, 1-(4-((2R or 2S,5S or 5R)-5-(5-amino-9-fluoro-7-methoxy-[1,2,4]triazolo[1,5-c]quinazolin-2-yl)-2-methylpiperidin-1-yl)-1H-pyrazol-1-yl)-2-methylpropan-2-ol]
55.4	5340	–	COc1cc(F)cc2c1nc(N)n1nc(C3CCC(C)N(c4cnn(CC(C)(C)O)c4)C3)nc21 (single isomer, unassigned) [Example 121, 1-(4-((2S or 2R,5R or 5S)-5-(5-amino-9-fluoro-7-methoxy-[1,2,4]triazolo[1,5-c]quinazolin-2-yl)-2-methylpiperidin-1-yl)-1H-pyrazol-1-yl)-2-methylpropan-2-ol]
369	2060	–	COc1cc(F)cc2c1nc(N)n1nc(C3CCC(C)N(c4cnn(C(C)(C)CO)c4)C3)nc21 (single isomer, unassigned) [Example 122, 2-(4-((2R or 2S,5R or 5S)-5-(5-amino-9-fluoro-7-methoxy-[1,2,4]triazolo[1,5-c]quinazolin-2-yl)-2-methylpiperidin-1-yl)-1H-pyrazol-1-yl)-2-methylpropan-1-ol]
0.3	422	–	COc1cc(F)cc2c1nc(N)n1nc(C3CCC(C)N(c4cnn(C(C)(C)CO)c4)C3)nc21 (single isomer, unassigned) [Example 123, 2-(4-((2S or 2R,5S or 5R)-5-(5-amino-9-fluoro-7-methoxy-[1,2,4]triazolo[1,5-c]quinazolin-2-yl)-2-methylpiperidin-1-yl)-1H-pyrazol-1-yl)-2-methylpropan-1-ol]
0.3	1.7	–	COc1cc(F)cc2c1nc(N)n1nc(C3CCC(C)N(c4cnn(C(C)(C)CO)c4)C3)nc21 (single isomer, unassigned) [Example 124, 2-(4-((2R or 2S,5S or 5R)-5-(5-amino-9-fluoro-7-methoxy-[1,2,4]triazolo[1,5-c]quinazolin-2-yl)-2-methylpiperidin-1-yl)-1H-pyrazol-1-yl)-2-methylpropan-1-ol]
86.4	2500	–	COc1cc(F)cc2c1nc(N)n1nc(C3CCC(C)N(c4cnn(C(C)(C)CO)c4)C3)nc21 (single isomer, unassigned) [Example 125, 2-(4-((2S or 2R,5R or 5S)-5-(5-amino-9-fluoro-7-methoxy-[1,2,4]triazolo[1,5-c]quinazolin-2-yl)-2-methylpiperidin-1-yl)-1H-pyrazol-1-yl)-2-methylpropan-1-ol]
2.6	2160	–	COc1cc2nc(N)n3nc(C4CCC(C)N(c5cnn(C(C)(C)CO)c5)C4)nc3c2cc1F (single isomer, unassigned) [Example 126, rac-2-(4-((2R or 2S,5R or 5S)-5-(5-amino-9-fluoro-8-methoxy-[1,2,4]triazolo[1,5-c]quinazolin-2-yl)-2-methylpiperidin-1-yl)-1H-pyrazol-1-yl)-2-methylpropan-1-ol]
120	1160	–	COc1cc2nc(N)n3nc(C4CCC(C)N(c5cnn(C(C)(C)CO)c5)C4)nc3c2cc1F (single isomer, unassigned) [Example 127, 2-(4-((2R or 2S,5R or 5S)-5-(5-amino-9-fluoro-8-methoxy-[1,2,4]triazolo[1,5-c]quinazolin-2-yl)-2-methylpiperidin-1-yl)-1H-pyrazol-1-yl)-2-methylpropan-1-ol]
0.3	2.4	–	COc1cc2nc(N)n3nc(C4CCC(C)N(c5cnn(C(C)(C)CO)c5)C4)nc3c2cc1F (single isomer, unassigned) [Example 128]
4.3	559	–	COc1cc(F)cc2c1nc(N)n1nc(C3(F)CCCN(c4cnn(CC(C)(C)O)c4)C3)nc21 (single isomer, unassigned) [Example 133, (S or R)-1-(4-(3-(5-amino-9-fluoro-7-methoxy-[1,2,4]triazolo[1,5-c]quinazolin-2-yl)-3-fluoropiperidin-1-yl)-1H-pyrazol-1-yl)-2-methylpropan-2-ol]
124	4290	–	COc1cc(F)cc2c1nc(N)n1nc(C3(F)CCCN(c4cnn(CC(C)(C)O)c4)C3)nc21 (single isomer, unassigned) [Example 134, (R or S)-1-(4-(3-(5-amino-9-fluoro-7-methoxy-[1,2,4]triazolo[1,5-c]quinazolin-2-yl)-3-fluoropiperidin-1-yl)-1H-pyrazol-1-yl)-2-methylpropan-2-ol]
–	7940	32	COc1cc2nc(N)n3nc(C4CN(c5cn(CC(C)(C)O)nc5C)CCS4(=O)=O)nc3c2cc1F (single isomer, unassigned) [Example 142, (R or S)-2-(5-amino-9-fluoro-8-methoxy-[1,2,4]triazolo[1,5-c]quinazolin-2-yl)-4-(1-(2-hydroxy-2-methylpropyl)-3-methyl-1H-pyrazol-4-yl)thiomorpholine 1,1-dioxide]
984	7560	–	COc1cc2nc(N)n3nc(C4CN(c5cn(CC(C)(C)O)nc5C)CCS4(=O)=O)nc3c2cc1F (single isomer, unassigned) [Example 143, (S or R)-2-(5-amino-9-fluoro-8-methoxy-[1,2,4]triazolo[1,5-c]quinazolin-2-yl)-4-(1-(2-hydroxy-2-methylpropyl)-3-methyl-1H-pyrazol-4-yl)thiomorpholine 1,1-dioxide]
–	7140	30	COc1cc2nc(N)n3nc(C4CN(c5cnn(CC(C)(C)O)c5C)CCS4(=O)=O)nc3c2cc1F (single isomer, unassigned) [Example 144, (R or S)-2-(5-amino-9-fluoro-8-methoxy-[1,2,4]triazolo[1,5-c]quinazolin-2-yl)-4-(1-(2-hydroxy-2-methylpropyl)-5-methyl-1H-pyrazol-4-yl)thiomorpholine 1,1-dioxide]
–	8050	32	COc1cc2nc(N)n3nc(C4CN(c5cnn(CC(C)(C)O)c5C)CCS4(=O)=O)nc3c2cc1F (single isomer, unassigned) [Example 145, (S or R)-2-(5-amino-9-fluoro-8-methoxy-[1,2,4]triazolo[1,5-c]quinazolin-2-yl)-4-(1-(2-hydroxy-2-methylpropyl)-5-methyl-1H-pyrazol-4-yl)thiomorpholine 1,1-dioxide]

Source: US11312719B2, “9-substituted amino triazolo quinazoline derivatives as adenosine receptor antagonists, pharmaceutical compositions and their use” (Merck Sharp & Dohme Corp., priority 2018, dated 2022)
